Measurements reported in US11498899B2, “Nitrone herbicides” (FMC Corporation, priority 2016, dated 2022).

Key:
[1] = system: barnyardgrass (Echinochloa crus-galli); assay: Test A preemergence, visual injury rating 0-100 (0 no effect, 100 complete control); type: in vivo
rice (Oryza sativa) = assay: Test B flooded paddy test, visual rating 0-100 (0 no effect, 100 complete control); conditions: Flood, 250 g ai/ha, applied to paddy water, rated after 13 to 15 days
[2] = system: ducksalad (Heteranthera limosa); assay: Test B flooded paddy test, visual rating 0-100; conditions: Flood, 250 g ai/ha, applied to paddy water, rated after 13 to 15 days
[3] = system: foxtail, giant (giant foxtail, Setaria faberii); assay: Test A preemergence, visual injury rating 0-100; type: in vivo
[4] = system: ryegrass, Italian (Italian ryegrass, Lolium multiflorum); assay: Test A preemergence, visual injury rating 0-100; type: in vivo
[5] = system: pigweed (Amaranthus retroflexus); assay: Test A preemergence, visual injury rating 0-100; type: in vivo
[6] = system: ragweed (common ragweed, Ambrosia elatior); assay: Test A preemergence, visual injury rating 0-100; type: in vivo
kochia (Kochia scoparia) [7] = assay: Test A preemergence, visual injury rating 0-100; type: in vivo
[8] = system: foxtail, giant (giant foxtail, Setaria faberii); assay: Test A postemergence, visual injury rating 0-100; type: in vivo; conditions: 0 to 100 scale
[9] = system: blackgrass (Alopecurus myosuroides); assay: Test A postemergence, visual injury rating 0-100; type: in vivo; conditions: 0 to 100 scale
[10] = system: ryegrass, Italian (Italian ryegrass, Lolium multiflorum); assay: Test A postemergence, visual injury rating 0-100; type: in vivo; conditions: 0 to 100 scale
corn (Zea mays) = assay: Test A postemergence, visual injury rating 0-100; type: in vivo; conditions: 0 to 100 scale
[11] = system: pigweed (Amaranthus retroflexus); assay: Test A postemergence, visual injury rating 0-100; type: in vivo; conditions: 0 to 100 scale
[12] = system: wheat (Triticum aestivum); assay: Test A postemergence, visual injury rating 0-100; type: in vivo; conditions: 0 to 100 scale
[13] = system: galium (catchweed bedstraw, Galium aparine); assay: Test A postemergence, visual injury rating 0-100; type: in vivo; conditions: 0 to 100 scale
[14] = system: barnyardgrass (Echinochloa crus-galli); assay: Test A postemergence, visual injury rating 0-100; type: in vivo; conditions: 0 to 100 scale
[15] = system: ragweed (common ragweed, Ambrosia elatior); assay: Test A postemergence, visual injury rating 0-100; type: in vivo; conditions: 0 to 100 scale
kochia (Kochia scoparia) [16] = assay: Test A postemergence, visual injury rating 0-100; type: in vivo; conditions: 0 to 100 scale
[17] = system: barnyardgrass (Echinochloa crus-galli); assay: Test B flooded paddy test, visual rating 0-100; conditions: Flood, 250 g ai/ha, applied to paddy water, rated after 13 to 15 days

COc1ccc(C2CC(C)=[N+]([O-])C2C(=O)Nc2cccc(F)c2F)cc1C(F)(F)F (racemic) [Compound 74]
Barnyardgrass plant response rating (0 to 100 scale) ([1]; 125 g ai/ha): 90
Barnyardgrass plant response rating (0 to 100 scale) ([1]; 500 g ai/ha): 90
Rice plant response rating (0 to 100 scale) (rice (Oryza sativa)): 0
Ducksalad plant response rating (0 to 100 scale) [2]: 20
Foxtail, Giant plant response rating (0 to 100 scale) ([3]; 125 g ai/ha): 90
Foxtail, Giant plant response rating (0 to 100 scale) ([3]; 500 g ai/ha): 90
Ryegrass, Italian plant response rating (0 to 100 scale) ([4]; 125 g ai/ha): 90
Ryegrass, Italian plant response rating (0 to 100 scale) ([4]; 500 g ai/ha): 90
Pigweed plant response rating (0 to 100 scale) ([5]; 125 g ai/ha): 0
Pigweed plant response rating (0 to 100 scale) ([5]; 500 g ai/ha): 60
Ragweed plant response rating (0 to 100 scale) ([6]; 125 g ai/ha): 40
Ragweed plant response rating (0 to 100 scale) ([6]; 500 g ai/ha): 40
Kochia plant response rating (0 to 100 scale) (kochia (Kochia scoparia) [7]; 125 g ai/ha): 30
Kochia plant response rating (0 to 100 scale) (kochia (Kochia scoparia) [7]; 500 g ai/ha): 90
Foxtail, Giant plant response rating ([8]; 125 g ai/ha): 60
Foxtail, Giant plant response rating ([8]; 500 g ai/ha): 80
Blackgrass plant response rating ([9]; 125 g ai/ha): 70
Blackgrass plant response rating ([9]; 500 g ai/ha): 70
Ryegrass, Italian plant response rating ([10]; 125 g ai/ha): 0
Ryegrass, Italian plant response rating ([10]; 500 g ai/ha): 50
Corn plant response rating (corn (Zea mays); 125 g ai/ha): 40
Corn plant response rating (corn (Zea mays); 500 g ai/ha): 80
Pigweed plant response rating ([11]; 125 g ai/ha): 20
Pigweed plant response rating ([11]; 500 g ai/ha): 40
Wheat plant response rating ([12]; 125 g ai/ha): 60
Wheat plant response rating ([12]; 500 g ai/ha): 60
Galium plant response rating ([13]; 125 g ai/ha): 20
Galium plant response rating ([13]; 500 g ai/ha): 50
Barnyardgrass plant response rating ([14]; 125 g ai/ha): 80
Barnyardgrass plant response rating ([14]; 500 g ai/ha): 90
Ragweed plant response rating ([15]; 125 g ai/ha): 0
Ragweed plant response rating ([15]; 500 g ai/ha): 20
Kochia plant response rating (kochia (Kochia scoparia) [16]; 125 g ai/ha): 0
Kochia plant response rating (kochia (Kochia scoparia) [16]; 500 g ai/ha): 10
Barnyardgrass plant response rating (0 to 100 scale) [17]: 45

CC1=[N+]([O-])C(C(=O)Nc2cccc(F)c2F)C(c2cccc(C)c2C)C1 (racemic) [Compound 77]
Barnyardgrass plant response rating (0 to 100 scale) ([1]; 125 g ai/ha): 90
Barnyardgrass plant response rating (0 to 100 scale) ([1]; 500 g ai/ha): 90
Rice plant response rating (0 to 100 scale) (rice (Oryza sativa)): 0
Ducksalad plant response rating (0 to 100 scale) [2]: 100
Foxtail, Giant plant response rating (0 to 100 scale) ([3]; 125 g ai/ha): 90
Foxtail, Giant plant response rating (0 to 100 scale) ([3]; 500 g ai/ha): 90
Ryegrass, Italian plant response rating (0 to 100 scale) ([4]; 125 g ai/ha): 10
Ryegrass, Italian plant response rating (0 to 100 scale) ([4]; 500 g ai/ha): 90
Pigweed plant response rating (0 to 100 scale) ([5]; 125 g ai/ha): 20
Pigweed plant response rating (0 to 100 scale) ([5]; 500 g ai/ha): 70
Ragweed plant response rating (0 to 100 scale) ([6]; 125 g ai/ha): 30
Ragweed plant response rating (0 to 100 scale) ([6]; 500 g ai/ha): 80
Kochia plant response rating (0 to 100 scale) (kochia (Kochia scoparia) [7]; 125 g ai/ha): 10
Kochia plant response rating (0 to 100 scale) (kochia (Kochia scoparia) [7]; 500 g ai/ha): 70
Foxtail, Giant plant response rating ([8]; 125 g ai/ha): 90
Foxtail, Giant plant response rating ([8]; 500 g ai/ha): 90
Blackgrass plant response rating ([9]; 125 g ai/ha): 60
Blackgrass plant response rating ([9]; 500 g ai/ha): 80
Ryegrass, Italian plant response rating ([10]; 125 g ai/ha): 40
Ryegrass, Italian plant response rating ([10]; 500 g ai/ha): 70
Corn plant response rating (corn (Zea mays); 125 g ai/ha): 50
Corn plant response rating (corn (Zea mays); 500 g ai/ha): 60
Pigweed plant response rating ([11]; 125 g ai/ha): 0
Pigweed plant response rating ([11]; 500 g ai/ha): 20
Wheat plant response rating ([12]; 125 g ai/ha): 50
Wheat plant response rating ([12]; 500 g ai/ha): 70
Galium plant response rating ([13]; 125 g ai/ha): 50
Galium plant response rating ([13]; 500 g ai/ha): 70
Barnyardgrass plant response rating ([14]; 125 g ai/ha): 80
Barnyardgrass plant response rating ([14]; 500 g ai/ha): 90
Ragweed plant response rating ([15]; 125 g ai/ha): 20
Ragweed plant response rating ([15]; 500 g ai/ha): 60
Kochia plant response rating (kochia (Kochia scoparia) [16]; 125 g ai/ha): 0
Kochia plant response rating (kochia (Kochia scoparia) [16]; 500 g ai/ha): 20
Barnyardgrass plant response rating (0 to 100 scale) [17]: 75

CC1=[N+]([O-])C(C(=O)Nc2cccc(F)c2F)C(c2cccc(F)c2C)C1 (racemic) [Compound 78]
Barnyardgrass plant response rating (0 to 100 scale) ([1]; 125 g ai/ha): 90
Barnyardgrass plant response rating (0 to 100 scale) ([1]; 500 g ai/ha): 90
Rice plant response rating (0 to 100 scale) (rice (Oryza sativa)): 0
Ducksalad plant response rating (0 to 100 scale) [2]: 100
Foxtail, Giant plant response rating (0 to 100 scale) ([3]; 125 g ai/ha): 90
Foxtail, Giant plant response rating (0 to 100 scale) ([3]; 500 g ai/ha): 90
Ryegrass, Italian plant response rating (0 to 100 scale) ([4]; 125 g ai/ha): 30
Ryegrass, Italian plant response rating (0 to 100 scale) ([4]; 500 g ai/ha): 70
Pigweed plant response rating (0 to 100 scale) ([5]; 125 g ai/ha): 0
Pigweed plant response rating (0 to 100 scale) ([5]; 500 g ai/ha): 80
Ragweed plant response rating (0 to 100 scale) ([6]; 125 g ai/ha): 20
Ragweed plant response rating (0 to 100 scale) ([6]; 500 g ai/ha): 70
Kochia plant response rating (0 to 100 scale) (kochia (Kochia scoparia) [7]; 125 g ai/ha): 10
Kochia plant response rating (0 to 100 scale) (kochia (Kochia scoparia) [7]; 500 g ai/ha): 60
Foxtail, Giant plant response rating ([8]; 125 g ai/ha): 80
Foxtail, Giant plant response rating ([8]; 500 g ai/ha): 90
Blackgrass plant response rating ([9]; 125 g ai/ha): 50
Blackgrass plant response rating ([9]; 500 g ai/ha): 70
Ryegrass, Italian plant response rating ([10]; 125 g ai/ha): 10
Ryegrass, Italian plant response rating ([10]; 500 g ai/ha): 50
Corn plant response rating (corn (Zea mays); 125 g ai/ha): 0
Corn plant response rating (corn (Zea mays); 500 g ai/ha): 50
Pigweed plant response rating ([11]; 125 g ai/ha): 0
Pigweed plant response rating ([11]; 500 g ai/ha): 20
Wheat plant response rating ([12]; 125 g ai/ha): 40
Wheat plant response rating ([12]; 500 g ai/ha): 60
Galium plant response rating ([13]; 125 g ai/ha): 60
Galium plant response rating ([13]; 500 g ai/ha): 60
Barnyardgrass plant response rating ([14]; 125 g ai/ha): 70
Barnyardgrass plant response rating ([14]; 500 g ai/ha): 80
Ragweed plant response rating ([15]; 125 g ai/ha): 0
Ragweed plant response rating ([15]; 500 g ai/ha): 60
Kochia plant response rating (kochia (Kochia scoparia) [16]; 125 g ai/ha): 20
Kochia plant response rating (kochia (Kochia scoparia) [16]; 500 g ai/ha): 50
Barnyardgrass plant response rating (0 to 100 scale) [17]: 75

CC1=[N+]([O-])C(C(=O)Nc2cccc(F)c2F)C(c2cc(C)ccc2C)C1 (racemic) [Compound 79]
Barnyardgrass plant response rating (0 to 100 scale) ([1]; 125 g ai/ha): 90
Barnyardgrass plant response rating (0 to 100 scale) ([1]; 500 g ai/ha): 90
Rice plant response rating (0 to 100 scale) (rice (Oryza sativa)): 0
Ducksalad plant response rating (0 to 100 scale) [2]: 100
Foxtail, Giant plant response rating (0 to 100 scale) ([3]; 125 g ai/ha): 80
Foxtail, Giant plant response rating (0 to 100 scale) ([3]; 500 g ai/ha): 90
Ryegrass, Italian plant response rating (0 to 100 scale) ([4]; 125 g ai/ha): 30
Ryegrass, Italian plant response rating (0 to 100 scale) ([4]; 500 g ai/ha): 50
Pigweed plant response rating (0 to 100 scale) ([5]; 125 g ai/ha): 0
Pigweed plant response rating (0 to 100 scale) ([5]; 500 g ai/ha): 0
Ragweed plant response rating (0 to 100 scale) ([6]; 125 g ai/ha): 0
Ragweed plant response rating (0 to 100 scale) ([6]; 500 g ai/ha): 0
Kochia plant response rating (0 to 100 scale) (kochia (Kochia scoparia) [7]; 125 g ai/ha): 0
Kochia plant response rating (0 to 100 scale) (kochia (Kochia scoparia) [7]; 500 g ai/ha): 20
Foxtail, Giant plant response rating ([8]; 125 g ai/ha): 70
Foxtail, Giant plant response rating ([8]; 500 g ai/ha): 90
Blackgrass plant response rating ([9]; 125 g ai/ha): 20
Blackgrass plant response rating ([9]; 500 g ai/ha): 70
Ryegrass, Italian plant response rating ([10]; 125 g ai/ha): 0
Ryegrass, Italian plant response rating ([10]; 500 g ai/ha): 50
Corn plant response rating (corn (Zea mays); 125 g ai/ha): 20
Corn plant response rating (corn (Zea mays); 500 g ai/ha): 70
Pigweed plant response rating ([11]; 125 g ai/ha): 0
Pigweed plant response rating ([11]; 500 g ai/ha): 0
Wheat plant response rating ([12]; 125 g ai/ha): 20
Wheat plant response rating ([12]; 500 g ai/ha): 70
Galium plant response rating ([13]; 125 g ai/ha): 20
Galium plant response rating ([13]; 500 g ai/ha): 30
Barnyardgrass plant response rating ([14]; 125 g ai/ha): 70
Barnyardgrass plant response rating ([14]; 500 g ai/ha): 80
Ragweed plant response rating ([15]; 125 g ai/ha): 30
Ragweed plant response rating ([15]; 500 g ai/ha): 30
Kochia plant response rating (kochia (Kochia scoparia) [16]; 125 g ai/ha): 0
Kochia plant response rating (kochia (Kochia scoparia) [16]; 500 g ai/ha): 0
Barnyardgrass plant response rating (0 to 100 scale) [17]: 60
